Read-outs that look alike come from different tables or passages of the source. Each block holds one molecule with its values, some of them ahead of it.
Legend:
[1] = test system: bovine lens soluble extracts; experiment: UV-induced opacification of bovine lens lysate; format: biochemical; settings: UV radiation
Source text: (§1) Both bovine and human lens lysates contain AAC as well as multiple endogenous client proteins, all of which are present at physiological ratios in a physiologically-relevant milieu of ions, redox pairs and antioxidants.

AAC [2] = target: T1, AAC (Homo sapiens, UniProt P02489); experiment: Chaperone assay: heat and DTT-induced aggregation of lysozyme in presence of AAC; format: biochemical; settings: AAC 250, lysozyme 500 μg/ml; 10 mM DTT, 37° C.; absorbance at 400 nm
T1 sequence (P02489 1-173): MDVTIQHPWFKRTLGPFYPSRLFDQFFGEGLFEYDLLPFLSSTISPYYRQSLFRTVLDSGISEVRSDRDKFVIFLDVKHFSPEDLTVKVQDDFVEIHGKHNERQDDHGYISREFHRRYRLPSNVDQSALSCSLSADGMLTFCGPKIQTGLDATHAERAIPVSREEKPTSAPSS
Protocol: (§2) Post translational modification, due to UV light, oxidation, glycation, crosslinking, and proteolysis can affect the CLA of AAC and its ability to prevent the aggregation of target proteins. These modifications lead to aggregation of other lens crystallins, which culminate in the development of lens opacity and cataract development. Since CAP4349 prevents aggregation of hACC, the effect of CAP4349 on the CLA activity of AAC was evaluated using in vitro chaperone assays with (i) lysozyme as a model client protein, and (ii) bovine γ-crystallin (BGC), as a physiologically relevant lenticular protein.
Heat-induced aggregation of lysozyme: In the presence of a reducing agent (DTT) and heat (37° C.), lysozyme undergoes denaturation and aggregation. The CLA activity of AAC can protect lysozyme against heat and DTT-induced aggregation (Robey, R. L. et al. (1997), Journal of Heterocyclic Chemistry, 34: (2)413-428).

[3] = test system: AAC(R116C)-GFP in HeLa cells; experiment: High-content assay for AAC aggregation (p62-positive inclusions); format: cell-based, human; settings: GFP fluorescence
Protocol: Cellular effects of CAP4349 were evaluated using an automated high-content assay for AAC aggregation. AAC(R116C)-GFP has been reported to form p62 positive inclusions (p62 is known to co-localize with ubiquitinated aggregates in several protein aggregation diseases) (Neal R, et al. (2010) Mol. Vis. 16:2137-2145.). Experiments were carried out to determine whether CAP4349 had any effect on co-localization of AAC and p62 in HeLa cells.

[4] = Estimated maximum concentration in the lens after topical ophthalmic dosing; settings: meglumine formulated; topical ophthalmic bioavailability 2-5%
Source text: (§3) Therefore, in order to improve the aqueous solubility and bioavailability, the present disclosure provides prodrugs of CAP4349.

AAC [5] = target: T1, AAC; experiment: Chaperone assay: UV-induced aggregation of BGC in presence of AAC; format: biochemical; settings: UV radiation
Protocol: as §2
UV-Induced Aggregation of BGC: Exposure to UV radiation is a contributing factor to cataract formation. […]
The aggregation reaction was initiated by exposing the reaction mixture to UVB radiation. Aggregation was monitored for changes in light scattering by measuring absorbance at 600 nm at t=0, 15, 30 and 45 minutes. Mean percentage absorbance±SD from triplicate or quadruplicate wells plotted on a graph (FIG. 2C). EC50 value was calculated as 64.8 (±1.3) […], which is the concentration of CAP4349-M concentration producing half-maximal response of BGC aggregation in presence of AAC.

[6] = test system: HLE cell line SRA 01/04 cells; experiment: Viability of human lens epithelial cells under normal conditions; format: cell-based; settings: no stress
Source text: Efficacy of CAP4349 in protection of human lens epithelial cells from stress, as a measure of cellular AC function: Heating of intact human lenses dramatically promotes conversion of soluble AC into HMW aggregates and AC is responsible for protecting human lens epithelial (HLE) cells from thermal stress induced cell death (Peschek J et al. (2009), Proc. Natl. Acad. Sci. USA. 106(32):13272-13277). Survival of HLE cells following UV stress also depends on AC activity (Kumar P. et al., (2007) Biochem. J., 408:251-258). Assays for measuring cell-survival assays following heat or UV exposure were developed as a potential surrogate for AC chaperone activity. […]

[7] = test system: HLE cell line SRA 01/04 cells; experiment: Heat-induced cell death of human lens epithelial cells; format: cell-based; settings: pre-incubated 2 hours; 50° C. for 40 m
Source text: (§4) Efficacy of CAP4349 in protection of human lens epithelial cells from stress, as a measure of cellular AC function: Heating of intact human lenses dramatically promotes conversion of soluble AC into HMW aggregates and AC is responsible for protecting human lens epithelial (HLE) cells from thermal stress induced cell death (Peschek J et al. (2009), Proc. Natl. Acad. Sci. USA. 106(32):13272-13277). Survival of HLE cells following UV stress also depends on AC activity (Kumar P. et al., (2007) Biochem. J., 408:251-258). Assays for measuring cell-survival assays following heat or UV exposure were developed as a potential surrogate for AC chaperone activity. HLE cell line SRA 01/04 cells were pre-incubated for 2 hours with CAP4349 and then exposed to heat (50° C. for 40 m) or UV light (48 seconds).

[8] = test system: HLE cell line SRA 01/04 cells; experiment: UV-induced cell death of human lens epithelial cells; format: cell-based; settings: pre-incubated 2 hours; UV light 48 seconds
Source text: as §4

AAC [9] = target: T1, AAC; experiment: UV-induced aggregation of hAAC, measured by absorbance; format: biochemical
Protocol: (§5) It was determined that CAP4349 protects hAAC from UV-induced aggregation in a concentration-dependent manner. The meglumine salt of Tafamidis (CAP4349-M) was tested for its ability to prevent hAAC aggregation using SDS/PAGE and absorbance.
In another study, hAAC, with or without CAP4349-M, was exposed to UV light for 60 minutes and the resulting aggregation was measured by absorbance. The results are shown in FIG. 1B in terms of mean percentage absorbance change±SD (n=3 or 4). The EC50 value, which is the half-maximal response of hAAC aggregation, was determined to be19.7(±1.4) μM.

porcine lenses = experiment: UV-induced opacification of porcine lenses ex vivo; settings: pretreated with 125 μM
Protocol: Porcine lenses were pretreated with 125 μM CAP4349 (or vehicle) and UV irradiated (or not). Porcine lenses (Sierra for Medical Science, Inc., Whittier, CA) have been used previously in ex vivo models of cataracts (Raju, M. (2014) Biochemistry, 53(16):2615-2623.).

[10] = test system: human lens soluble extracts; experiment: UV-induced opacification of human lens lysate; format: biochemical; settings: UV radiation
Source text: as §1

[11] = Drug bank value; cited from earlier work
AAC [12] = target: T1, AAC; experiment: UV-induced aggregation of hAAC, SDS-PAGE; format: biochemical; settings: UV light 15 minutes; 0-1000 μM; 4-20% SDS-PAGE
Protocol: as §5
hAAC, with or without CAP4349-M (meglumine salt, 0-1000 μM), was exposed to UV light for 15 minutes and analyzed on a 4-20% gradient SDS-PAGE gel.

Solubility = format: physicochemical; settings: for solubility: disodium salt
Protocol: as §3
To a solution of Tafamidis, CAP4349 (308 mg) in DMF (10 mL) was added K2CO3 (220 mg) and KI (132 mg) followed by di-tert-butyl chloromethyl phosphate at room temperature while stirring. The reaction mixture was stirred at 70° C. for two hours. The reaction was quenched with ice and extracted three times in Ethyl Acetate. The combined organic layer was washed with water followed by 1% aqueous solution of sodium thiosulfate, and lastly with Brine, yielding the intermediate t-butyl protected phosphate. The t-butyl protected phosphate intermediate was converted to disodium salt in two steps by cleaving the protecting group with TFA followed by NaHCO3 treatment in the presence of water and THF resulting in disodium salt of CAP4357, as a white solid.

[13] = versus meglumine salt of CAP4349

Compound: O=C(O)c1ccc2nc(-c3cc(Cl)cc(Cl)c3)oc2c1 [CAP4349, 2-(3,5-dichlorophenyl) benzo[d]oxazole-6-carboxylic acid]
protection of bovine lysate from UV-induced opacification [1]: protected both bovine (FIG. 5A) and human (FIG. 5B) lysates from UV-induced opacification in a dose-dependent manner
protection of lysozyme from aggregation by AAC (AAC [2]): increased protection of lysozyme from aggregation
aggregates of AAC(R116C)-GFP co-localized with p62 [3]: decreased
maximum concentration in the lens [4]: about 5 μM
protection provided by AAC against UV-induced BGC aggregation (AAC [5]): increased the protection provided by AAC against UV-induced BGC aggregation in a dose-dependent manner
viability under normal conditions [6]: does not alter the viability
protection from heat-induced cell death [7]: protects the cells from heat-induced and UV-induced cell death in a dose-dependent manner
protection from UV-induced cell death [8]: protects the cells from heat-induced and UV-induced cell death in a dose-dependent manner
EC50 (AAC [9]; read-out: EC50 for the prevention of hACC aggregation (as restated in Example 7)): 19.5 µM
UV-induced opacification of porcine lenses (porcine lenses): prevent UV-induced opacification
protection of human lysate from UV-induced opacification [10]: protected both bovine (FIG. 5A) and human (FIG. 5B) lysates from UV-induced opacification in a dose-dependent manner

Compound: CNC[C@H](O)[C@@H](O)[C@H](O)[C@H](O)CO.O=C(O)c1ccc2nc(-c3cc(Cl)cc(Cl)c3)oc2c1 [CAP4349-M]
maximum solubility [11]: 0.0323 mg/mL
prevention of hAAC aggregation (band intensities of aggregated and non-aggregated form) (AAC [12]): dose-dependent prevention of hAAC aggregation

Compound: O=C(O)c1ccc2nc(-c3cc(Cl)cc(Cl)c3)oc2c1 [CAP4349-M]
EC50 (AAC [9]; UV light 60 minutes, absorbance, n=3 or 4, read-out: EC50, half-maximal response of hAAC aggregation): 19.7 µM

solubility (Solubility; aqueous with cosolvent or surfactant or cyclodextrin, 5% aqueous (2-Hydroxypropyl)-β-cyclodextrin, read-out: solubility in 5% aqueous HPBCD): 40 mg/mL
solubility (Solubility; water, read-out: aqueous solubility): 25 mg/mL
fold increase in HPBCD solubility (Solubility; [13]): 1,238 fold
fold increase in aqueous solubility (Solubility; [13]): 774 fold
Compound: O=C(OCOP(=O)(O)O)c1ccc2nc(-c3cc(Cl)cc(Cl)c3)oc2c1.[Na+].[Na+] [CAP4357]

Reference: US20220241247A1, “PHARMACOLOGICAL AGENTS FOR TREATING PROTEIN AGGREGATION DISEASES OF THE EYE” (PLEX PHARMACEUTICALS, INC., priority 2019, published 2022)
